# “Also recorded” adds a separate entry of the source. Where no end group is shown, it is not given here. [ ]: non-standard residue; d: D form. dNle = CCCC[C@@H](N)C(=O)O
# Key:
# [1] = Potency/efficacy of α-MSH fragments and derivatives compared to parent α-MSH (anti-inflammatory and/or antipyretic properties); details: discovered by the inventors; no method or data given
# Text: It is contemplated that derivatives of α-MSH will have analogous function. It is understood that derivatives of α-MSH means functionally equivalent peptides. […] Thus, α-MSH derivative would include, among others, the partial segments of the 13 amino acid peptide. Specifically, α-MSH is composed of the following sequence of amino acids: SYSMEHFRWGKPV (SEQ ID. NO. 1). […] These derivatives of the parent α-MSH are functional equivalents.
# [2] = compared with L-form tripeptide; cited from earlier work
# [3] = test system: IL-1β, IL-6 and TNF-α production by celiac mucosa; test: Spontaneous (non-stimulated) cytokine production by duodenal mucosa specimens incubated 24 h in vitro, with or without synthetic α-MSH; type: cell-based, human; details: α-MSH 10^−5 M in incubation medium, no gliadin
# Text: (§1) Four biopsy specimens from the distal duodenum were obtained during upper gastrointestinal endoscopy. Two of such specimens were fixed in 10% formalin and paraffin embedded for standard histological examination. The remaining two specimens from each subject were available for this research and were allocated for either 1) RT-PCR and immunohistochemical studies (N=20: 9 celiac, 7 celiac on diet, 4 normal); 2) cytokine production in vitro in the presence or absence of α-MSH(N=22: 11 celiac, 6 celiac on diet, 5 normal); or 3) cytokine production in vitro after gliadin stimulation in the presence or absence of α-MSH(N=25: 14 celiac, 6 celiac on diet, 5 normal).
# (§2) A series of 47 specimen pairs were used to evaluate cytokine production by celiac mucosa in vitro and the influence of α-MSH on such production. […]
# (§3) α-MSH was measured using a double-antibody radioimmunoassay (RIA) method (Eurodiagnostica, Malmo, Sweden); the sensitivity calculated from a decrease in binding of 2 SD in the zero standard was 4.8 pg/ml and the cross-reactivity with other POMC peptides (ACTH [1-24], ACTH [1-39], β-MSH, γ-MSH) is <0.002%. IL-1β, IL-6, and TNF-α were determined using commercial ELISA methods (Amersham Pharmacia Biotech, Little Chalfont, UK).
# (§4) Values were expressed as means±SEM. […]
# [4] = test system: IL-6 production by gliadin-stimulated duodenal mucosa; test: Gliadin-stimulated cytokine production by duodenal mucosa specimens incubated 24 h in vitro, with or without synthetic α-MSH; type: cell-based, human; details: co-incubation with α-MSH 10^−5 M, controls, untreated celiac and treated celiac patients (all groups), ELISA
# Text: as §1, §2, §3, §4
# [5] = has been shown; no method given; cited from earlier work
# fever = details: compared with α-MSH; cited from earlier work
substance,measurement,setting,value
His-DNle-Arg-Trp-Phe-Lys-Pro-Val (H[dNle]RWFKPV),Potency over the parent α-MSH and its derivatives,[1],increased potency
Ac-[D-K11]-α-MSH 11-13-NH2,Potency relative to the L-form of the tripeptide α-MSH (11-13),[2],same general potency
"SYSMEHFRWGKPV [α-MSH, 13 amino acid peptide produced by post-translational processing of pro-opiomelanocortin; synthetic peptide used in the tests]","Non-stimulated 24 h production of IL-1β, IL-6 and TNF-α by celiac mucosa after addition of α-MSH",[3],no change
same,IL-6 production/release in supernatants of gliadin-stimulated duodenal specimens,[4],significantly decreased; also recorded: substantial reduction; also recorded: significantly reduced; also recorded: statistically significant inhibition
KPV,Potency/efficacy compared to parent α-MSH,[5],as potent or more potent than the parent α-MSH
"[Nle^4,D-Phe^7]-α-MSH",Potency in reducing fever relative to the parent peptide α-MSH,fever,approximately ten times more potent
